Experimental data published in patent US8735601B2, “Pentamethine cyanine fluorescent dye with N-substituting at β-position of conjugated chain” (Dalian University of Technology, priority 2010, dated 2014).

Assays:
[1] = Absorption and emission spectra of dyes in different solvents; format: physicochemical; parameters: key to Δλ1 / Δλ2: Stokes shift in nm; ε1 (molar extinction coefficient) / ε2 (molar extinction coefficient): scale not given here; conditions: for Δλ1: Stokes shift to absorption peak 1; for Δλ2: Stokes shift to absorption peak 2
Text: In the present invention, compounds IIa to IIg were synthesized based on compound II, and their spectral properties were investigated. Compared with the traditional pentamethine cyanine dye, for the novel pentamethine cyanine dye with N-substituting at β-position (deviated position), it was observed that, evident blue shift of absorption and emission wavelengths occurred, absorption wavelength blue shifted even largely than that of emission wavelength, absorption spectrum and fluorescence spectrum were no longer mirror-symmetric and had two absorption peaks and a single emission peak, and larger Stokes shift (minimum 60 and 150 nm, and maximum 90 and 230 nm) appeared.

[2] = Measurement of fluorescence quantum yield (Rhodamine B in ethanol as reference); format: physicochemical

Compound: CCN(CC)C(=C\C1=[N+](CC)c2ccccc2C1(C)C)/C=C/C=C1/N(CC)c2ccccc2C1(C)C [Dye IId]
- Δλ1 ([1]; solvent DCM): 88
- Δλ1 ([1]; solvent DMSO): 92
- Δλ1 ([1]; solvent Ethanol): 94
- Δλ1 ([1]; solvent Methanol): 96
- Δλ1 ([1]; solvent THF): 87
- Δλ1 ([1]; solvent Water): 99
- Δλ2 ([1]; solvent DCM): 158
- Δλ2 ([1]; solvent DMSO): 140
- Δλ2 ([1]; solvent Ethanol): 157
- Δλ2 ([1]; solvent Methanol): 158
- Δλ2 ([1]; solvent THF): 154
- Δλ2 ([1]; solvent Water): 152
- ε1 (molar extinction coefficient) ([1]; solvent DCM): 4.3 cm^−1M
- ε2 (molar extinction coefficient) ([1]; solvent DCM): 2.9 cm^−1M
- λabs1 ([1]; solvent DCM): 523 nm
- λbs2 ([1]; solvent DCM): 453 nm
- λem ([1]; solvent DCM): 611 nm
- ε1 (molar extinction coefficient) ([1]; solvent DMSO): 3.9 cm^−1M
- ε2 (molar extinction coefficient) ([1]; solvent DMSO): 2.7 cm^−1M
- λabs1 ([1]; solvent DMSO): 508 nm
- λbs2 ([1]; solvent DMSO): 460 nm
- λem ([1]; solvent DMSO): 600 nm
- ε1 (molar extinction coefficient) ([1]; solvent Ethanol): 3.5 cm^−1M
- ε2 (molar extinction coefficient) ([1]; solvent Ethanol): 2.5 cm^−1M
- λabs1 ([1]; solvent Ethanol): 516 nm
- λbs2 ([1]; solvent Ethanol): 453 nm
- λem ([1]; solvent Ethanol): 610 nm
- ε1 (molar extinction coefficient) ([1]; solvent Methanol): 3.9 cm^−1M
- ε2 (molar extinction coefficient) ([1]; solvent Methanol): 2.8 cm^−1M
- λabs1 ([1]; solvent Methanol): 513 nm
- λbs2 ([1]; solvent Methanol): 451 nm
- λem ([1]; solvent Methanol): 609 nm
- ε1 (molar extinction coefficient) ([1]; solvent THF): 4.1 cm^−1M
- ε2 (molar extinction coefficient) ([1]; solvent THF): 2.1 cm^−1M
- λabs1 ([1]; solvent THF): 517 nm
- λbs2 ([1]; solvent THF): 450 nm
- λem ([1]; solvent THF): 604 nm
- ε1 (molar extinction coefficient) ([1]; solvent Water): 2.9 cm^−1M
- ε2 (molar extinction coefficient) ([1]; solvent Water): 2.3 cm^−1M
- λabs1 ([1]; solvent Water): 501 nm
- λbs2 ([1]; solvent Water): 448 nm
- λem ([1]; solvent Water): 600 nm
- Φ1 (fluorescence quantum yield) ([2]; solvent DCM): 0.124
- Φ2 (fluorescence quantum yield) ([2]; solvent DCM): 0.085
- Φ1 (fluorescence quantum yield) ([2]; solvent DMSO): 0.004
- Φ2 (fluorescence quantum yield) ([2]; solvent DMSO): 0.004
- Φ1 (fluorescence quantum yield) ([2]; solvent Ethanol): 0.009
- Φ2 (fluorescence quantum yield) ([2]; solvent Ethanol): 0.009
- Φ1 (fluorescence quantum yield) ([2]; solvent Methanol): 0.005
- Φ2 (fluorescence quantum yield) ([2]; solvent Methanol): 0.005
- Φ1 (fluorescence quantum yield) ([2]; solvent THF): 0.030
- Φ2 (fluorescence quantum yield) ([2]; solvent THF): 0.022
- Φ1 (fluorescence quantum yield) ([2]; solvent Water): 0.001
- Φ2 (fluorescence quantum yield) ([2]; solvent Water): 0.001

Compound: CCN1/C(=C/C=C/C(=C/C2=[N+](CC)c3ccccc3C2(C)C)NCc2ccccc2)C(C)(C)c2ccccc21 [Dye IIe]
- Δλ1 ([1]; solvent DCM): 81
- Δλ1 ([1]; solvent DMSO): 92
- Δλ1 ([1]; solvent Ethanol): 89
- Δλ1 ([1]; solvent Methanol): 88
- Δλ1 ([1]; solvent THF): 86
- Δλ1 ([1]; solvent Water): 101
- Δλ2 ([1]; solvent DCM): 185
- Δλ2 ([1]; solvent DMSO): 174
- Δλ2 ([1]; solvent Ethanol): 179
- Δλ2 ([1]; solvent Methanol): 174
- Δλ2 ([1]; solvent THF): 170
- Δλ2 ([1]; solvent Water): 188
- ε1 (molar extinction coefficient) ([1]; solvent DCM): 2.8 cm^−1M
- ε2 (molar extinction coefficient) ([1]; solvent DCM): 2.1 cm^−1M
- λabs1 ([1]; solvent DCM): 522 nm
- λbs2 ([1]; solvent DCM): 418 nm
- λem ([1]; solvent DCM): 603 nm
- ε1 (molar extinction coefficient) ([1]; solvent DMSO): 2.6 cm^−1M
- ε2 (molar extinction coefficient) ([1]; solvent DMSO): 2.3 cm^−1M
- λabs1 ([1]; solvent DMSO): 515 nm
- λbs2 ([1]; solvent DMSO): 433 nm
- λem ([1]; solvent DMSO): 607 nm
- ε1 (molar extinction coefficient) ([1]; solvent Ethanol): 2.8 cm^−1M
- ε2 (molar extinction coefficient) ([1]; solvent Ethanol): 2.3 cm^−1M
- λabs1 ([1]; solvent Ethanol): 519 nm
- λbs2 ([1]; solvent Ethanol): 429 nm
- λem ([1]; solvent Ethanol): 608 nm
- ε1 (molar extinction coefficient) ([1]; solvent Methanol): 2.7 cm^−1M
- ε2 (molar extinction coefficient) ([1]; solvent Methanol): 2.2 cm^−1M
- λabs1 ([1]; solvent Methanol): 517 nm
- λbs2 ([1]; solvent Methanol): 431 nm
- λem ([1]; solvent Methanol): 605 nm
- ε1 (molar extinction coefficient) ([1]; solvent THF): 2.9 cm^−1M
- ε2 (molar extinction coefficient) ([1]; solvent THF): 2.2 cm^−1M
- λabs1 ([1]; solvent THF): 510 nm
- λbs2 ([1]; solvent THF): 426 nm
- λem ([1]; solvent THF): 596 nm
- ε1 (molar extinction coefficient) ([1]; solvent Water): 2.3 cm^−1M
- ε2 (molar extinction coefficient) ([1]; solvent Water): 1.9 cm^−1M
- λabs1 ([1]; solvent Water): 516 nm
- λbs2 ([1]; solvent Water): 429 nm
- λem ([1]; solvent Water): 617 nm
- Φ1 (fluorescence quantum yield) ([2]; solvent DCM): 0.106
- Φ2 (fluorescence quantum yield) ([2]; solvent DCM): 0.075
- Φ1 (fluorescence quantum yield) ([2]; solvent DMSO): 0.009
- Φ2 (fluorescence quantum yield) ([2]; solvent DMSO): 0.008
- Φ1 (fluorescence quantum yield) ([2]; solvent Ethanol): 0.019
- Φ2 (fluorescence quantum yield) ([2]; solvent Ethanol): 0.017
- Φ1 (fluorescence quantum yield) ([2]; solvent Methanol): 0.008
- Φ2 (fluorescence quantum yield) ([2]; solvent Methanol): 0.007
- Φ1 (fluorescence quantum yield) ([2]; solvent THF): 0.085
- Φ2 (fluorescence quantum yield) ([2]; solvent THF): 0.075
- Φ1 (fluorescence quantum yield) ([2]; solvent Water): 0.003
- Φ2 (fluorescence quantum yield) ([2]; solvent Water): 0.001
